{
  "source": "patent US10597388B2",
  "about": "“Pyridazinone herbicides” (FMC CORPORATION, priority 2014, dated 2020)",
  "experiment_in_all_cases": "Test C greenhouse herbicide test, pre- and postemergence",
  "format_in_all_cases": "in vivo",
  "key": {"[1]": {"system": "barnyardgrass (Echinochloa crus-galli)", "method_in_brief": "(§1)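 Greenhouse pots; pre-em on seeded loam:sand blend, post-em on 2–18 cm plants (1–4 leaf) in sphagnum peat/vermiculite medium. Formulation: non-phytotoxic solvent + surfactant. Read-out: visual % control (0–100) vs controls at 13–15 d.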"}, "[2]": {"system": "blackgrass (Alopecurus myosuroides)", "method_in_brief": "as §1"}, "corn (Zea mays)": {"system": "corn (Zea mays)", "method_in_brief": "as §1"}, "[3]": {"system": "crabgrass, large (large crabgrass, Digitaria sanguinalis)", "method_in_brief": "as §1"}, "[4]": {"system": "foxtail, giant (giant foxtail, Setaria faberii)", "method_in_brief": "as §1"}, "[5]": {"system": "galium (catchweed bedstraw, Galium aparine)", "method_in_brief": "as §1"}, "[6]": {"system": "johnsongrass (Sorghum halepense)", "method_in_brief": "as §1"}, "[7]": {"system": "nutsedge, yellow (yellow nutsedge, Cyperus esculentus)", "method_in_brief": "as §1"}, "[8]": {"system": "ryegrass, Italian (Italian ryegrass, Lolium multiflorum)", "method_in_brief": "as §1"}, "soybean (Glycine max)": {"system": "soybean (Glycine max)", "method_in_brief": "as §1"}, "[9]": {"system": "velvetleaf (Abutilon theophrasti)", "method_in_brief": "as §1"}, "[10]": {"system": "wheat (winter wheat, Triticum aestivum)", "method_in_brief": "as §1"}, "[11]": {"details": "Postemergence, 31 g ai/ha, scale 0 to 100 (0 no effect, 100 complete control)"}, "[12]": {"details": "Postemergence, 62 g ai/ha, 0 to 100 scale (0 no effect, 100 complete control)"}, "[13]": {"details": "Postemergence, 250 g ai/ha, scale 0 to 100, 0 no effect, 100 complete control, 13 to 15 d"}, "[14]": {"details": "Preemergence, 31 g ai/ha, scale 0 to 100, 0 is no effect, 100 is complete control"}, "[15]": {"details": "Preemergence, 62 g ai/ha, scale 0 to 100, 0 is no effect, 100 is complete control"}, "[16]": {"details": "Preemergence, 125 g ai/ha, scale 0 to 100, 0 is no effect, 100 is complete control"}, "[17]": {"details": "Preemergence, 250 g ai/ha, scale 0 to 100, 0 no effect, 100 complete control"}, "[18]": {"details": "postemergence, 125 g ai/ha, scale 0 to 100, 0 no effect, 100 complete control"}},
  "data": [
    {"smiles": "COC(=O)Oc1c(OC)nn(C)c(=O)c1-c1c(C)ccc2ccccc12", "note": "[Compound 136]", "values": [
      {"measurement": "Plant response rating, Barnyardgrass", "setting": "[1]; [11]", "result": 15},
      {"measurement": "Barnyardgrass plant response rating", "setting": "[1]; [12]", "result": 25},
      {"measurement": "Plant response rating, Barnyardgrass", "setting": "[1]; Postemergence, 125 g ai/ha, scale 0 to 100, 0 is no effect, 100 is complete control", "result": 35},
      {"measurement": "Plant response rating, Barnyardgrass", "setting": "[1]; [13]", "result": 40},
      {"measurement": "Plant response rating, Barnyardgrass", "setting": "[1]; [14]", "result": 25},
      {"measurement": "Plant response rating, Barnyardgrass", "setting": "[1]; [15]", "result": 50},
      {"measurement": "Plant response rating, Barnyardgrass", "setting": "[1]; [16]", "result": 90},
      {"measurement": "Barnyardgrass plant response rating", "setting": "[1]; [17]", "result": 95},
      {"measurement": "Plant response rating, Blackgrass", "setting": "[2]; [11]", "result": 10},
      {"measurement": "Blackgrass plant response rating", "setting": "[2]; [12]", "result": 5},
      {"measurement": "Plant response rating, Blackgrass", "setting": "[2]; [13]", "result": 45},
      {"measurement": "Plant response rating, Blackgrass", "setting": "[2]; [14]", "result": 70},
      {"measurement": "Plant response rating, Blackgrass", "setting": "[2]; [15]", "result": 80},
      {"measurement": "Plant response rating, Blackgrass", "setting": "[2]; [16]", "result": 70},
      {"measurement": "Blackgrass plant response rating", "setting": "[2]; [17]", "result": 90},
      {"measurement": "Blackgrass plant response rating", "setting": "[2]; [18]", "result": 30},
      {"measurement": "Plant response rating, Corn", "setting": "corn (Zea mays); [11]", "result": 0},
      {"measurement": "Corn plant response rating", "setting": "corn (Zea mays); [12]", "result": 5},
      {"measurement": "Plant response rating, Corn", "setting": "corn (Zea mays); [13]", "result": 10},
      {"measurement": "Plant response rating, Corn", "setting": "corn (Zea mays); [14]", "result": 0},
      {"measurement": "Plant response rating, Corn", "setting": "corn (Zea mays); [15]", "result": 5},
      {"measurement": "Plant response rating, Corn", "setting": "corn (Zea mays); [16]", "result": 0},
      {"measurement": "Corn plant response rating", "setting": "corn (Zea mays); [17]", "result": 5},
      {"measurement": "Corn plant response rating", "setting": "corn (Zea mays); [18]", "result": 10},
      {"measurement": "Plant response rating, Crabgrass, Large", "setting": "[3]; [11]", "result": 10},
      {"measurement": "Crabgrass, Large plant response rating", "setting": "[3]; [12]", "result": 20},
      {"measurement": "Plant response rating, Crabgrass, Large", "setting": "[3]; [13]", "result": 35},
      {"measurement": "Plant response rating, Crabgrass, Large", "setting": "[3]; [14]", "result": 0},
      {"measurement": "Plant response rating, Crabgrass, Large", "setting": "[3]; [15]", "result": 5},
      {"measurement": "Plant response rating, Crabgrass, Large", "setting": "[3]; [16]", "result": 60},
      {"measurement": "Crabgrass, Large plant response rating", "setting": "[3]; [17]", "result": 95},
      {"measurement": "Crabgrass, Large plant response rating", "setting": "[3]; [18]", "result": 25},
      {"measurement": "Plant response rating, Foxtail, Giant", "setting": "[4]; [11]", "result": 35},
      {"measurement": "Foxtail, Giant plant response rating", "setting": "[4]; [12]", "result": 45},
      {"measurement": "Plant response rating, Foxtail, Giant", "setting": "[4]; [13]", "result": 90},
      {"measurement": "Plant response rating, Foxtail, Giant", "setting": "[4]; [14]", "result": 75},
      {"measurement": "Plant response rating, Foxtail, Giant", "setting": "[4]; [15]", "result": 85},
      {"measurement": "Plant response rating, Foxtail, Giant", "setting": "[4]; [16]", "result": 100},
      {"measurement": "Foxtail, Giant plant response rating", "setting": "[4]; [17]", "result": 98},
      {"measurement": "Foxtail, Giant plant response rating", "setting": "[4]; [18]", "result": 70},
      {"measurement": "Plant response rating, Galium", "setting": "[5]; [11]", "result": 90},
      {"measurement": "Galium plant response rating", "setting": "[5]; [12]", "result": 90},
      {"measurement": "Plant response rating, Galium", "setting": "[5]; [13]", "result": 95},
      {"measurement": "Plant response rating, Galium", "setting": "[5]; [14]", "result": 90},
      {"measurement": "Plant response rating, Galium", "setting": "[5]; [15]", "result": 98},
      {"measurement": "Plant response rating, Galium", "setting": "[5]; [16]", "result": 100},
      {"measurement": "Galium plant response rating", "setting": "[5]; [17]", "result": 100},
      {"measurement": "Galium plant response rating", "setting": "[5]; [18]", "result": 90},
      {"measurement": "Plant response rating, Johnsongrass", "setting": "[6]; [11]", "result": 5},
      {"measurement": "Johnsongrass plant response rating", "setting": "[6]; [12]", "result": 5},
      {"measurement": "Plant response rating, Johnsongrass", "setting": "[6]; [13]", "result": 5},
      {"measurement": "Plant response rating, Johnsongrass", "setting": "[6]; [14]", "result": 5},
      {"measurement": "Plant response rating, Johnsongrass", "setting": "[6]; [15]", "result": 5},
      {"measurement": "Plant response rating, Johnsongrass", "setting": "[6]; [16]", "result": 20},
      {"measurement": "Johnsongrass plant response rating", "setting": "[6]; [17]", "result": 10},
      {"measurement": "Johnsongrass plant response rating", "setting": "[6]; [18]", "result": 5},
      {"measurement": "Plant response rating, Nutsedge, Yellow", "setting": "[7]; [11]", "result": 15},
      {"measurement": "Nutsedge, Yellow plant response rating", "setting": "[7]; [12]", "result": 55},
      {"measurement": "Plant response rating, Nutsedge, Yellow", "setting": "[7]; [13]", "result": 85},
      {"measurement": "Plant response rating, Nutsedge, Yellow", "setting": "[7]; [14]", "result": 5},
      {"measurement": "Plant response rating, Nutsedge, Yellow", "setting": "[7]; [15]", "result": 35},
      {"measurement": "Plant response rating, Nutsedge, Yellow", "setting": "[7]; [16]", "result": 70},
      {"measurement": "Nutsedge, Yellow plant response rating", "setting": "[7]; [17]", "result": 80},
      {"measurement": "Nutsedge, Yellow plant response rating", "setting": "[7]; [18]", "result": 75},
      {"measurement": "Plant response rating, Ryegrass, Italian", "setting": "[8]; [11]", "result": 5},
      {"measurement": "Ryegrass, Italian plant response rating", "setting": "[8]; [12]", "result": 10},
      {"measurement": "Plant response rating, Ryegrass, Italian", "setting": "[8]; [13]", "result": 35},
      {"measurement": "Plant response rating, Ryegrass, Italian", "setting": "[8]; [14]", "result": 50},
      {"measurement": "Plant response rating, Ryegrass, Italian", "setting": "[8]; [15]", "result": 55},
      {"measurement": "Plant response rating, Ryegrass, Italian", "setting": "[8]; [16]", "result": 85},
      {"measurement": "Ryegrass, Italian plant response rating", "setting": "[8]; [17]", "result": 90},
      {"measurement": "Ryegrass, Italian plant response rating", "setting": "[8]; [18]", "result": 30},
      {"measurement": "Plant response rating, Soybean", "setting": "soybean (Glycine max); [11]", "result": 5},
      {"measurement": "Soybean plant response rating", "setting": "soybean (Glycine max); [12]", "result": 10},
      {"measurement": "Plant response rating, Soybean", "setting": "soybean (Glycine max); [13]", "result": 15},
      {"measurement": "Plant response rating, Soybean", "setting": "soybean (Glycine max); [14]", "result": 10},
      {"measurement": "Plant response rating, Soybean", "setting": "soybean (Glycine max); [15]", "result": 10},
      {"measurement": "Plant response rating, Soybean", "setting": "soybean (Glycine max); [16]", "result": 10},
      {"measurement": "Soybean plant response rating", "setting": "soybean (Glycine max); [17]", "result": 20},
      {"measurement": "Soybean plant response rating", "setting": "soybean (Glycine max); [18]", "result": 10},
      {"measurement": "Plant response rating, Velvetleaf", "setting": "[9]; [11]", "result": 75},
      {"measurement": "Velvetleaf plant response rating", "setting": "[9]; [12]", "result": 95},
      {"measurement": "Plant response rating, Velvetleaf", "setting": "[9]; [13]", "result": 98},
      {"measurement": "Plant response rating, Velvetleaf", "setting": "[9]; [14]", "result": 75},
      {"measurement": "Plant response rating, Velvetleaf", "setting": "[9]; [15]", "result": 95},
      {"measurement": "Plant response rating, Velvetleaf", "setting": "[9]; [16]", "result": 100},
      {"measurement": "Velvetleaf plant response rating", "setting": "[9]; [17]", "result": 100},
      {"measurement": "Velvetleaf plant response rating", "setting": "[9]; [18]", "result": 90},
      {"measurement": "Plant response rating, Wheat", "setting": "[10]; [11]", "result": 35},
      {"measurement": "Wheat plant response rating", "setting": "[10]; [12]", "result": 45},
      {"measurement": "Plant response rating, Wheat", "setting": "[10]; [13]", "result": 90},
      {"measurement": "Plant response rating, Wheat", "setting": "[10]; [14]", "result": 0},
      {"measurement": "Plant response rating, Wheat", "setting": "[10]; [15]", "result": 10},
      {"measurement": "Plant response rating, Wheat", "setting": "[10]; [16]", "result": 45},
      {"measurement": "Wheat plant response rating", "setting": "[10]; [17]", "result": 45},
      {"measurement": "Wheat plant response rating", "setting": "[10]; [18]", "result": 45}
    ]}
  ]
}
